Test results: US12162858B2, “Quinoline derivatives as inhibitors of AXL/MER RTK and CSF1R” (QURIENT CO., LTD., priority 2018, dated 2024)
Like-named read-outs stand apart in the source and are kept apart here.

How the values were obtained:
Axl = target: T1, Axl (Homo sapiens, UniProt P30530); assay: LanthaScreen Eu kinase binding assay for Axl
T1 sequence (P30530 26-894): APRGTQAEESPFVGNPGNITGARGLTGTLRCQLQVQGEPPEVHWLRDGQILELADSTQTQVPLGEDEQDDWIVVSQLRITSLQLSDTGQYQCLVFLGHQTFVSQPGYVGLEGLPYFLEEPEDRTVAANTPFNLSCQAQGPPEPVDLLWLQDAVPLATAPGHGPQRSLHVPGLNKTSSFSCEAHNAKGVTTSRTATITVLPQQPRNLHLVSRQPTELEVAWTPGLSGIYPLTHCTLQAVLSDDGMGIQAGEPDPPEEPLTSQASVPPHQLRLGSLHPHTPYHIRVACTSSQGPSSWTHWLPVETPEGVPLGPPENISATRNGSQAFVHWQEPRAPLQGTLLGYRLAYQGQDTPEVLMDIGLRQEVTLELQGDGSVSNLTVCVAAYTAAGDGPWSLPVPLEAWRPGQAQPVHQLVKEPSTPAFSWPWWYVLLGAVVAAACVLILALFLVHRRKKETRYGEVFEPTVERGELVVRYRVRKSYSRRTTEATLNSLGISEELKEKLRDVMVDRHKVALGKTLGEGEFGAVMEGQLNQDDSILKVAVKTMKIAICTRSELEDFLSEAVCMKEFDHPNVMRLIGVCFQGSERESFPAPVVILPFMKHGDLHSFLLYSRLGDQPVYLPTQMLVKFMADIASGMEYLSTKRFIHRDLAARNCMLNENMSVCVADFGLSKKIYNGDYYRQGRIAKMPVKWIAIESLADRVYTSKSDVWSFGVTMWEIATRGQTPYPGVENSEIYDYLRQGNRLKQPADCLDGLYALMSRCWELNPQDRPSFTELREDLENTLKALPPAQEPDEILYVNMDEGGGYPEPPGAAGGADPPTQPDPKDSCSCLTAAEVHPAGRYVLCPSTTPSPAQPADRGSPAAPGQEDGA
Description: (§1) LanthaScreen® Eu Kinase Binding assays were conducted at Life Technologies using the manufacturer's specifications for each kinase indicated.
(§2) Briefly, the principle behind this assay is based upon the binding and displacement of an Alexa Fluor 647-labeled tracer to the kinase of interest. Binding of the tracer to the kinase is detected using an EU-labeled anti-tag antibody. Simultaneous binding of both the tracer and antibody to the kinase gives rise to a FRET-signal. Binding of an inhibitor to the kinase competes for binding with the tracer, resulting in a loss of FRET-signal.
(§3) A given compound was diluted in DMSO to make a stock compound solution. The stock compound solution was serially diluted over eight steps in DMSO. Each diluted compound solution in DMSO was diluted in kinase buffer. Afterwards four kinds of working solution were prepared. First, Tracer-Working solution consists of Tracer 236 and Kinase Buffer. Second, Axl, Mer, Tyro3 or Met/anti-GST-AB-Working solution contained one of the kinases Axl, and Mer or anti-GST-AB (=anti glutathione-S-transferase antibody) in Kinase Buffer. Third, anti-GST-AB-Working solution was made with anti-GST-AB and Kinase Buffer. Last, in the DMSO-Working solution DMSO was added to Kinase Buffer to a final concentration to 3%. Each of the four kinds of working solutions were separately added to the assay plate and then incubated for 1 h at room temperature. After incubation, the assay plate was measured with respect to the FRET-Signal with the EnVision (Perkin Elmer) using the program LanthaHTRF-Assay. Data evaluation was done in the Quattro Workflow software. Kd (the equilibrium dissociation constant) values were calculated relative to vehicle (DMSO) control wells.

Mer = target: T2, Mer (Homo sapiens, UniProt Q12866); assay: LanthaScreen Eu kinase binding assay for Mer
T2 construct: purchased Life Technologies
T2 sequence (Q12866 21-999): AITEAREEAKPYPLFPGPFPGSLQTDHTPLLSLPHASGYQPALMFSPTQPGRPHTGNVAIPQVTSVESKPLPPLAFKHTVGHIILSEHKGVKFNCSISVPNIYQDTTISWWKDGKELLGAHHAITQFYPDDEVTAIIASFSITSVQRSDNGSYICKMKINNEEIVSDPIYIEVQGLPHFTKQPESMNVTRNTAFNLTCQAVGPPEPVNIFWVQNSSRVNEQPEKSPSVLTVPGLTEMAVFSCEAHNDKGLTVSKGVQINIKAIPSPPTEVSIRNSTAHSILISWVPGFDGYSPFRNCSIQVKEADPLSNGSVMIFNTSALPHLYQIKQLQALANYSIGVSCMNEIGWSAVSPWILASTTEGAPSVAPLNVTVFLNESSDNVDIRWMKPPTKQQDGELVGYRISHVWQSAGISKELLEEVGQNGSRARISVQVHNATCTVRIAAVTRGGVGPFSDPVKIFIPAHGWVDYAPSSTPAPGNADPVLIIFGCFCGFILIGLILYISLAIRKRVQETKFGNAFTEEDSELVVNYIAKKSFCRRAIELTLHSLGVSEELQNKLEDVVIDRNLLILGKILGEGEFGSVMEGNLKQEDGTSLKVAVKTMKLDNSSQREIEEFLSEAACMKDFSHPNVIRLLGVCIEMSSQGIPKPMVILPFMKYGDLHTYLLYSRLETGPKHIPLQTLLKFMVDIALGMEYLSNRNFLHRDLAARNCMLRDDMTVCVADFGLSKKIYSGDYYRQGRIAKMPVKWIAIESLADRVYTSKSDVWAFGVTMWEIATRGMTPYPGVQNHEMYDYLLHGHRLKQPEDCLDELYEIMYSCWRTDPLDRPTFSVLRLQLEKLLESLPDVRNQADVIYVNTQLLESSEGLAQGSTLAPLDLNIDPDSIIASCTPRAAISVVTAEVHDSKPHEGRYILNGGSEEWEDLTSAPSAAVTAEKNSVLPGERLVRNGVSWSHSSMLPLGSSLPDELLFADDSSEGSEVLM
Description: as §1, §2, §3

[1] = read-out: Axl kinase binding activity (Kd)
[2] = read-out: Mer kinase binding activity (Kd)
[3] = comparison of compounds of present invention (**) vs compounds of WO2016/166250 (*), read-out: Binding activity Axl (Kd)
[4] = comparison of compounds of present invention (**) vs compounds of WO2016/166250 (*), read-out: Binding activity Mer (Kd)

Row | SMILES | Kd (Axl; [1]) | Kd (Mer; [2]) | Kd (Axl; [3]) | Kd (Mer; [4])
1 | COc1cc2nccc(Oc3ccc(NC(=O)c4nn(C5CCN(C)C5)cc4OCC(F)(F)F)cn3)c2cc1OC (stereo not shown) [Compound 133] | 100 to 500 nM | 100 to 500 nM | – | –
2 | COc1cc2nccc(Oc3ccc(NC(=O)c4nn(CC5COC5)cc4OCC(F)(F)F)cc3)c2cc1OC [Compound 101] | < 100 nM | < 100 nM | – | –
3 | CNCCn1cc(OCC(F)(F)F)c(C(=O)Nc2ccc(Oc3ccnc4cc(OC)c(OC)cc34)c(C)c2)n1 [Compound 156] | 100 to 500 nM | 100 to 500 nM | – | –
4 | COc1cc2nccc(Oc3ccc(NC(=O)c4nn(CCOC5CC5)cc4OCC(F)(F)F)c(F)c3)c2cc1OC [Compound 115] | < 100 nM | < 100 nM | – | –
5 | COc1cc2nccc(Oc3ccc(NC(=O)c4nn(C5CCN(C)C5)cc4OCC(F)(F)F)cc3C)c2cc1OC (stereo not shown) [Compound 98] | 100 to 500 nM | < 100 nM | – | –
6 | COc1cc2nccc(Oc3ccc(NC(=O)c4nn(CC5COC5)cc4OCC(F)(F)F)nc3)c2cc1OC [Compound 92] | < 100 nM | < 100 nM | 1.4 nM | 1.3 nM
7 | COc1cc2nccc(Oc3ccc(NC(=O)c4nn(C5CC5)cc4OCCF)nc3)c2cc1OC [Compound 110] | < 100 nM | < 100 nM | – | –
8 | CCCn1cc(OCC(F)F)c(C(=O)Nc2ccc(Oc3ccnc4cc(OC)c(OC)cc34)cn2)n1 [Compound 12] | < 100 nM | < 100 nM | – | –
9 | COc1cc2nccc(Oc3ccc(NC(=O)c4nn(C5CCCC5)cc4OCC(F)(F)F)cn3)c2cc1OC [Compound 131] | < 100 nM | < 100 nM | – | –
10 | COCCOc1cn(CC(C)O)nc1C(=O)Nc1ccc(Oc2ccnc3cc(OC)c(OC)cc23)cn1 (stereo not shown) [Compound 150] | < 100 nM | < 100 nM | – | –
11 | COc1cc2nccc(Oc3ccc(NC(=O)c4nn(C5CCNC5)cc4OCC(F)(F)F)cn3)c2cc1OC (stereo not shown) [Compound 132] | ≥ 500 nM | ≥ 500 nM | – | –
12 | CCCn1cc(OCCOC)c(C(=O)Nc2ccc(Oc3ccnc4cc(OC)c(OC)cc34)cn2)n1 [Compound 105] | < 100 nM | < 100 nM | – | –
13 | COc1cc2nccc(Oc3ccc(NC(=O)c4n[nH]cc4OCC(F)(F)F)nc3)c2cc1OC [Compound 16] | < 100 nM | < 100 nM | 19 nM | 12 nM
14 | COc1cc2nccc(Oc3ccc(NC(=O)c4nn(C5CCCC5)cc4OCC(F)(F)F)nn3)c2cc1OC [Compound 121] | < 100 nM | < 100 nM | – | –
15 | CCCn1cc(OCC(F)(F)F)c(C(=O)Nc2ccc(Oc3ccnc4cc(OC)c(OC)cc34)c(C(F)(F)F)c2)n1 [Compound 114] | < 100 nM | < 100 nM | – | –
16 | CCCn1cc(NCCC(F)(F)F)c(C(=O)Nc2ccc(Oc3ccnc4cc(OC)c(OC)cc34)cn2)n1 [Compound 158] | < 100 nM | < 100 nM | – | –
17 | COc1cc2nccc(Oc3ccc(NC(=O)c4nn(CCOC5CC5)cc4OCC(F)(F)F)cc3C)c2cc1OC [Compound 117] | < 100 nM | < 100 nM | – | –
18 | COc1cc2nccc(Oc3ccc(NC(=O)c4nn(CCOC5CC5)cc4OCC(F)(F)F)nc3)c2cc1OC [Compound 153] | < 100 nM | < 100 nM | – | –
